{"source": "patent US20260374809A1", "about": "“COMPOUNDS USEFUL FOR THE TREATMENT AND/OR CARE OF THE SKIN, HAIR, NAILS AND/OR MUCOUS MEMBRANES” (Lubrizol Advanced Materials, Inc., priority 2022, published 2026)", "tested_on": "Musclebind Like Protein 1 (MBNL1)", "experiment": "MBNL1 protein in human dermal fibroblasts (HDFa), immunofluorescence", "assay_type": "cell-based", "settings": "HDFa cells; for % Fold induction (FI) (MEAN ± SEM), MBNL1 intensity: 24 hours, basal control = 100; for % MME (MEAN ± SEM), comparative MBNL1 intensity with respect to electrical stimulation: MES = 100, control = 0", "protocol": "Musclebind Like Protein 1 (MBNL1) in Human Dermal Fibroblasts (HDF)\nThe aim of this study was to evaluate the increase of MBNL1 protein in human skin fibroblasts after electrical stimulation, mimicking a microcurrent-like treatment. Topical products able to increase MBNL1 protein amount in fibroblast cells, in a similar way to the microcurrent-like treatment, could induce the same antiaging benefits on the skin avoiding the side-effects of physical microcurrent treatment\nCells were seeded at 100.000 cells/well in 12-well plates over sterile glass slides and incubated at 37 °C, 5% CO2 for 48 hours. After that, electrical stimulation was performed. Glass slides were transferred to 6-well plates and were electro-stimulated (1.5V) for 1 hour using a C-dish device (IonOptix™) at room temperature. An identical 6-well plate with non-stimulated cells were incubated at room temperature for 1 hour. After electrostimulation, glass slides were transferred again to a 12-well plate and incubated at 37 °C, 5% CO2 for 24 hours. Three different replicates were used for each condition.\nCells were seeded at 8.000 cells/well in 96-well plates and incubated at 37 °C, 5% CO2 for 48 hours. After the incubation time, cells were treated with PEP-1 (H-Leu-Pro-Val-Thr-OH) at 0.01 mg/ml, 0.1 mg/ml and 0.5 mg/ml for 24 hours. Cells incubated with medium alone were used as a control. Three replicates were carried out for each condition.\nAfter 24 hours of incubation, cells were washed two times with phosphate buffered saline (PBS), fixed with 4% PFA (paraformaldehyde solution) for 15 minutes and washed again two times. After that, cells were permeabilized with 1% X-Triton solution for 15 minutes and blocked with 5% bovine serum albumin (BSA) solution for 1 hour. Cells were incubated with 1/20 dilution of primary antibody against MBNL1 protein (Sigma) in 5% BSA solution for 2 hours. After the incubation time, cells were washed and incubated with 1/200 dilution of secondary antibody (AlexFluor™ 488) in 5% BSA solution for 1 hour. Finally, cells were washed 3 times and stained with 4′,6-Diamidine-2′-phenylindole dihydrochloride (DAPI) mount solution for nuclei detection. MBNL1 protein quantification were measured as fluorescence intensity of MBNL1 normalized by the number of nuclei for each condition using a confocal microscope (Operetta® confocal microscope, PerkinElmer Inc) using Alexa 488 Green channel (Ex: 460-490 nm/Em: 500-550 nm). Results are expressed as an MBNL1 level that is relative to that of the control condition.\nAt least, three independent experiments were analyzed in this assay.\nResults were calculated using the following formula: […]\nFor comparative purposes, the effect of the peptide was compared with that of MES. The effect was calculated as follows: […]", "note": "Where a SMILES comes first, the peptide text is derived from it.", "data": [{"compound": "CC(C)C[C@H](N)C(=O)N1CCC[C@H]1C(=O)N[C@H](C(=O)N[C@H](C(=O)O)[C@@H](C)O)C(C)C", "note": "[PEP-1, H-Leu-Pro-Val-Thr-OH] (H-LPVT-OH)", "values": [{"measurement": "% Fold induction (FI) (MEAN ± SEM), MBNL1 intensity", "setting": "0.01 mg/ml", "result": "106.66 ± 2.65", "unit": "%"}, {"measurement": "% MME (MEAN ± SEM), comparative MBNL1 intensity with respect to electrical stimulation", "setting": "0.01 mg/ml", "result": "52.73 ± 2.65", "unit": "%"}, {"measurement": "% Fold induction (FI) (MEAN ± SEM), MBNL1 intensity", "setting": "0.1 mg/ml", "result": "107.67 ± 1.62", "unit": "%"}, {"measurement": "% MME (MEAN ± SEM), comparative MBNL1 intensity with respect to electrical stimulation", "setting": "0.1 mg/ml", "result": "60.73 ± 1.62", "unit": "%"}, {"measurement": "% Fold induction (FI) (MEAN ± SEM), MBNL1 intensity", "setting": "0.5 mg/ml", "result": "109.46 ± 2.68", "unit": "%"}, {"measurement": "% MME (MEAN ± SEM), comparative MBNL1 intensity with respect to electrical stimulation", "setting": "0.5 mg/ml", "result": "74.90 ± 2.68", "unit": "%"}]}]}
